Measured values published in US9144539B2, “Methioninase inhibitor and composition and food or drink containing the same” (Lotte Co., Ltd., priority 2006, dated 2015).

Molecular target: T1, methioninase (Fusobacterium nucleatum subsp. nucleatum, UniProt Q8RDT4)
T1 construct: disrupted by sonication to obtain the enzyme; endogenous in cells; host or cells: Fusobacterium nucleatum JCM 8532, sonicated cell lysate (unpurified)
T1 sequence (Q8RDT4 1-395): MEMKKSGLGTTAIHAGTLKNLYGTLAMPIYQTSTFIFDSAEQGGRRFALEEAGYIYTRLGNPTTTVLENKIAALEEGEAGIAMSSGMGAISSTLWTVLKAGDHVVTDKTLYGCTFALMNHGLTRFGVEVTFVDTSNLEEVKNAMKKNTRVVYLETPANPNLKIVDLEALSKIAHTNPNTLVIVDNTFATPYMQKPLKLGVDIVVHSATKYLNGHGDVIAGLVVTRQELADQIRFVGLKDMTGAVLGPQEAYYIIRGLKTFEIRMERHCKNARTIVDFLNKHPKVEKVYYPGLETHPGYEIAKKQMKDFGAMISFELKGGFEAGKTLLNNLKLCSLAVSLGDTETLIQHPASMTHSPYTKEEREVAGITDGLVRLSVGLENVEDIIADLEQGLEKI
Assay: Cell-free methioninase inhibition test (α-ketobutyrate production from methionine)
Format: biochemical
Details: cell-free enzyme from sonicated bacteria; read-out: IC50 against methioninase (converted)

| Structure (SMILES) | IC50 [µM] |
| --- | --- |
| CC(C)=CCC/C(C)=C/Cc1cc(C(=O)O)cc(CC=C(C)C)c1O [Myrsinoic acid A, myrsinoic acid A] | 14.6 |
| CC(C)=CCCC(C)(O)C1Cc2cc(C(=O)O)cc(CC=C(C)C)c2O1 (stereo not drawn) [Myrsinoic acid B, myrsinoic acid B] | 11.2 |
| CC(C)=CCC[C@]1(C)Oc2c(CC=C(C)C)cc(C(=O)O)cc2C[C@@H]1O [Myrsinoic acid C, myrsinoic acid C] | 13.9 |
| CC(C)=CCC/C(C)=C/Cc1cc(C(=O)O)cc(C/C=C(\C)CCC=C(C)C)c1O [Myrsinoic acid E (Synthesized), Myrsinoic acid E] | 12.2 |
| CC(C)=CCC/C(C)=C/Cc1cc(C(=O)O)cc(C/C=C(\C)CCC=C(C)C)c1O [Myrsinoic acid E, myrsinoic acid E] | 12.2 |
| CC(C)=CC/C=C(\C)C1Cc2cc(C(=O)O)cc(CC=C(C)C)c2O1 (stereo not drawn) [Myrsinoic acid F, myrsinoic acid F] | 8.81 |
